# Results taken from patent US6413967B1, “Inhibition of novel calcium entry pathway in electrically non-excitable cells acting as an anti-proliferative therapy” (The University of Virginia Patents Foundation, priority 1995, dated 2002).
# Legend:
# [1] = test system: NVG current in Jurkat cells; assay: perforated patch clamp, non-voltage gated (NVG) current; type: cell-based, human; conditions: membrane potential −60 mV, 300 nM thapsigargin, amiloride 100 μM, MnCl2 300 μM, NiCl2 1 mM, W-7 30 μM, NDGA 10 μM
# Protocol: All recordings were performed using the perforated patch method (Horn et al, J. Gen. Physiol. (1988) 92:145) of the gigaseal patch clamp technique (Hammil et al, Pflugers Arch (1981) 391:85) with microelectrodes of 5-10 megohm series resistance. In all solutions for voltage clamp, K^+ was replaced with Cs^+ to block outward K^+ currents (Fox et al, J. Physiol. (Lond.) (1987) 392:149). The bath solution contained (in mM): NaCl, 155; CsCl, 4.5; CaCl2, 2; MgCl2, 1; D-glucose, 5; HEPES, 10 (pH 7.4 with NaOH). The pipette solution contained (in mM): CsCl, 55; Cesium methanesulfonate, 70; CaCl2, 1; MgCl2, 7; HEPES, 10 (pH 7.3 with NaOH). Nystatin was made as a stock solution of 6 mg/100 μl DMSO, and 2 μl of the stock was added to 1 ml of the pipette solution for use. Both pipette and bath solutions were 290-300 mOsm. Experiments were performed on cells at room temperature using the Axopatch-1D patch clamp (Axon Instruments, Foster City, Calif.) after correction of junction potentials and leak subtraction. Records were low-pass filtered at 500 Hz, and the data were collected, stored and analyzed using the pClamp software program (Axon Instruments). For the non-voltage gated current traces, data is presented either as the tracing from a chart recorder or from the digital data in which the current was measured at 5 second intervals and plotted as individual points.
# [2] = test system: IL-2 production by Jurkat cells; assay: interleukin-2 production with CT-EV bioassay; type: cell-based, human
# Protocol: Jurkat cells were suspended at a concentration of 2×10^6 cells/ml in serum-free RPMI-1640 containing 100 U/ml penicillin and 100 μg/ml streptomycin. Cells were treated for 15 min with the appropriate compound to be tested prior to stimulation with 1 μg/ml PHA plus 10 nM PDB (calcium-independent) or with PHA alone (calcium dependent). The cells were then incubated for 2 h at 37° C. Following the 2 h stimulation period, the cells were washed twice with RPMI-1640 supplemented with 5% FBS with 5 min incubations between washes and were resuspended at 2×10^6 cells/ml. The cell suspensions were placed in wells of 24 well plates and were incubated at 37° C. for 24 h. At the end of the incubation, the suspensions were collected, the cells were pelleted and the supernatant was stored at 4° C. for later assay for IL-2 levels. […] Standard curves were generated by addition of known amounts of recombinant human IL-2 (BioWhittaker) to allow determination of IL-2 content in each sample. Plates were then incubated at 37° C. for 48 h. To determine proliferation of CTEV cells, 1 μCi of [^3H]-Thymidine (6.7 Ci/mmol; New England Nuclear) was added to each well for the final 16 hours of the assay and at 48 h the cells were harvested and incorporated ^3H was counted by liquid scintillation counting.
# Jurkat T cells = assay: Jurkat cell proliferation, tetrazolium dye; type: cell-based, human; conditions: 48 hours
# Protocol: (§1) The effect of various drugs on the proliferation of Jurkat T cells, MDA-468 human breast cancer cells and PC3 human prostate cancer cells was determined by incubating the cells with the indicated concentrations of drug for 48 hours. The number of viable cells remaining at the end of the incubation period was evaluated using the procedure outlined in Example 4.
# (§2) Cells are plated in triplicate in a 96-well flat-bottomed plate (Jurkat: 5e4 cells/well in RPMI-1640 plus 5% fbs; MDA468: 2.5e4 per well in DMEM plus 5% fbs and 11 μg/ml insulin) in the absence (control) or presence of drug at 3, 10, 30, and 100 μM. An additional control of 100 μM drug in RPMI-1640 plus 5% fbs or DMEM plus 5% fbs and 11 μg/Ml insulin with no cells is included with each run to control for possible drug interactions with the dye. The plate is then placed in a 5% CO2 37° C. incubator for 44 to 48 hours. 20 μl of dye solution containing a tetrazolium dye (3-(4,5-dimethylthiazol-2-yl)-5-(3-carboxymethoxyphenyl)-2-(4-sulfophenyl)-2H-tetrazolium, Owen's reagent) plus coupling reagent (phenazine methosulfate) is added to each well, the plate is returned to the incubator, and the absorbance at 490 nm is read using an ELISA plate reader 3 to 4 h (Jurkat cells) or 2 to 3 h (MDA-468 cells) later. All data are presented as percent of control (no drug addition). With this protocol, it is possible to determine the effect of 5 drugs at 4 concentrations in a single 96-well plate as outlined below: […]
# [3] = test system: [Ca^2+]i in MDA-468 cells; assay: EGF receptor-stimulated Ca2+ influx in MDA-468 cells; type: cell-based, human; conditions: effect the same post- and pre- EGF receptor stimulation
# Protocol: MDA468 cells are incubated with either indo-1 or the combination of fura-red/fluo-3 for 1 hour while still adherent in the maintenance flask in DMEM plus 5% fbs and 1 μg/ml insulin. Cells are removed by gentle scraping and washed three times in buffer A containing 1% charcoal stripped fbs (Nelson et al, Br. J. Cancer (1991) 63:933). The cells are then suspended to a final concentration of 1e6/ml and used as above in the SLM. For the human breast cancer cells, Ca^2+ entry is stimulated by the addition of 25 ng/ml EGF, rather than the antibody used above.
# [4] = test system: MDA-468 human breast cancer cells; assay: MDA-468 cell proliferation, tetrazolium dye; type: cell-based; conditions: human breast cancer cell proliferation, 48 hours
# Protocol: as §1, §2
structure (smiles),measurement,setting,value
"CC(Cc1ccc(O)c(O)c1)C(C)Cc1ccc(O)c(O)c1 (stereo not drawn) [NDGA, 4,4′-(2,3-dimethyl-1,4-butanediyl)bis[1,2-benzenediol]]",effect on the thapsigargin-induced NVG current,[1],no effect
same,"effect on IL-2 secretion, Ca^2+-dependent stimulation",[2],suppressed
same,"effect on IL-2 secretion, stimulus not initially requiring extracellular Ca^2+",[2],little effect
same,T cell PROLIF,Jurkat T cells,↓
same,MDA [CA^2+]i,[3],↓
same,MDA PROLIF,[4],↓
